Results published in ChEMBL document CHEMBL5614367, “Hydroxamic acid hybrids: Histone deacetylase inhibitors with anticancer therapeutic potency” (Eur J Med Chem, 2023).

Columns and labels:
Histone deacetylase 2 = Histone deacetylase 2 (Homo sapiens, UniProt Q92769); assay: Inhibition of HDAC2 (unknown origin)
Histone deacetylase 8 = biological target: T1, Histone deacetylase 8 (Homo sapiens, UniProt Q9BY41); assay: Inhibition of HDAC8 (unknown origin)
T1 sequence (Q9BY41 whole entry): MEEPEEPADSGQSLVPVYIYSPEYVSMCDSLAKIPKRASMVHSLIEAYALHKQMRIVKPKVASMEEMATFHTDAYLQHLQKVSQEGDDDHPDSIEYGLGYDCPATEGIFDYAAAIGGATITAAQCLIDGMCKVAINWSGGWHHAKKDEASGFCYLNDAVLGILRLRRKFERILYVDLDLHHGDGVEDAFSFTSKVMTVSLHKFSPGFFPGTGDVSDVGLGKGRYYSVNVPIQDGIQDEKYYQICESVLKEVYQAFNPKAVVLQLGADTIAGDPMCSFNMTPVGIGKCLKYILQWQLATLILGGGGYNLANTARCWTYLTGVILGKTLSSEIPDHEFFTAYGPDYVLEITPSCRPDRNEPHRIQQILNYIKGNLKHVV

K562 [1] = assay: cells; assay type: functional, cell-based; conditions: Homo sapiens, K562, 72 h; pooled result: one value given for 11 cell lines, strains, targets or settings
HCT-116 [2] = assay: Antitumor activity against human HCT-116 cells xenografted in mouse assessed as tumor weight inhibition at 30 to 150 mg/kg, ip relative to control; assay type: functional; conditions: dose 30-150 mg/kg
HGC-27 = assay: Antitumor activity against human HGC-27 cells xenografted in mouse assessed as tumor weight inhibition at 30 to 150 mg/kg, ip relative to control; assay type: functional; conditions: dose 30-150 mg/kg
EL4 = assay: Antitumor activity against mouse EL4 cells implanted in mouse assessed as tumor weight inhibition at 15 mg/kg, ip measured after 12 days relative to control; assay type: functional; conditions: EL4, 288 h, time 12 day
A20 = assay: Antitumor activity against mouse A20 cells implanted in mouse assessed as tumor weight inhibition at 15 mg/kg, ip measured after 12 days relative to control; assay type: functional; conditions: A20, 288 h, time 12 day
Histone deacetylase 1 = Histone deacetylase 1 (Homo sapiens, UniProt Q13547); assay: Inhibition of HDAC1 (unknown origin)
Sequence of Histone deacetylase 1 (Q13547 whole entry): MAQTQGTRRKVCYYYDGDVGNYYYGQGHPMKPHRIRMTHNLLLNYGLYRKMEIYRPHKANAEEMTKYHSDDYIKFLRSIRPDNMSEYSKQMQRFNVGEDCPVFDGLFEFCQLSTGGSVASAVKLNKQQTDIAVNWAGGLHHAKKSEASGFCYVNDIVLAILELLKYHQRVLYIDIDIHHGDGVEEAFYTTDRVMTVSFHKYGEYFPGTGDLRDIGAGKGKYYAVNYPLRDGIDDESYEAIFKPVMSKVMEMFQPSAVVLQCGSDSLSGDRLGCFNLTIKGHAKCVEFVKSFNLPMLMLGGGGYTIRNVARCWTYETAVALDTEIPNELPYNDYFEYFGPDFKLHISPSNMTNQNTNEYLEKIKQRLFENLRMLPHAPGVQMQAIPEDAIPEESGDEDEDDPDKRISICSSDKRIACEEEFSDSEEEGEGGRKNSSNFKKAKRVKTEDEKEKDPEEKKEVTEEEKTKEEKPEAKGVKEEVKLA

[3] = Inhibition of PI3K (unknown origin); parameters: species or system Homo sapiens
Histone deacetylase 3 = Histone deacetylase 3 (Homo sapiens, UniProt O15379); assay: Inhibition of HDAC3 (unknown origin)
Sequence of Histone deacetylase 3 (O15379 whole entry): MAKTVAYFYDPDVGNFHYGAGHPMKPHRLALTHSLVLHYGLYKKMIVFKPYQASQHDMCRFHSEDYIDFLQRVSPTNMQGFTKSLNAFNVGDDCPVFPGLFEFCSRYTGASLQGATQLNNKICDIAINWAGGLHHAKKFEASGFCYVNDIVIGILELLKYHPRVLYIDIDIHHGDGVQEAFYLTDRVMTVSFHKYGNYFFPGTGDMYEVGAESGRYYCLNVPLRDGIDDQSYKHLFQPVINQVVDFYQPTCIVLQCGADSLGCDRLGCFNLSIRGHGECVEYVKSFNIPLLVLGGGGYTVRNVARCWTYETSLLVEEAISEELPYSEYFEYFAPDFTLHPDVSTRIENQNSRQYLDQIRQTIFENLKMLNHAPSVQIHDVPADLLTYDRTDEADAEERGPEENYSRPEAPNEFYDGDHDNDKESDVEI

[4] = biological target: Polyamine deacetylase HDAC10 (Homo sapiens, UniProt Q969S8); assay: Inhibition of HDAC10 (unknown origin)
Sequence of Polyamine deacetylase HDAC10 (Q969S8 whole entry): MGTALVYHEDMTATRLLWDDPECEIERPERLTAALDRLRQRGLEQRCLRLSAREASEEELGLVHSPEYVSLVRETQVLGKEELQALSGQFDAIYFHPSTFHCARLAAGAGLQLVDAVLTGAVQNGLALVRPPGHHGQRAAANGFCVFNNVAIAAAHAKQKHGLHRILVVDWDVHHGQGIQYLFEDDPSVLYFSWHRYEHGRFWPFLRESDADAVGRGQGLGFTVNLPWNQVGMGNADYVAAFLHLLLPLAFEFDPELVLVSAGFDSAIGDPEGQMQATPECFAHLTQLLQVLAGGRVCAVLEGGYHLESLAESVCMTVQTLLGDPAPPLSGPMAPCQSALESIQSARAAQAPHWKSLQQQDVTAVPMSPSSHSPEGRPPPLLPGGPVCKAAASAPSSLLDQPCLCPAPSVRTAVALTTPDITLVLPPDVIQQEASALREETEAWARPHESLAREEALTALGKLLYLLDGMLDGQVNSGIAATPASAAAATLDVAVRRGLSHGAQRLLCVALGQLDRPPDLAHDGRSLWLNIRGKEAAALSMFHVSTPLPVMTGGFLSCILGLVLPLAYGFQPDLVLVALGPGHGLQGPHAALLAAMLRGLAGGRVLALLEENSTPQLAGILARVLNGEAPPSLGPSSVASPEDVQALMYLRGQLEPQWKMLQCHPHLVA

Histone deacetylase 11 = Histone deacetylase 11 (Homo sapiens, UniProt Q96DB2); assay: Inhibition of HDAC11 (unknown origin)
Sequence of Histone deacetylase 11 (Q96DB2 whole entry): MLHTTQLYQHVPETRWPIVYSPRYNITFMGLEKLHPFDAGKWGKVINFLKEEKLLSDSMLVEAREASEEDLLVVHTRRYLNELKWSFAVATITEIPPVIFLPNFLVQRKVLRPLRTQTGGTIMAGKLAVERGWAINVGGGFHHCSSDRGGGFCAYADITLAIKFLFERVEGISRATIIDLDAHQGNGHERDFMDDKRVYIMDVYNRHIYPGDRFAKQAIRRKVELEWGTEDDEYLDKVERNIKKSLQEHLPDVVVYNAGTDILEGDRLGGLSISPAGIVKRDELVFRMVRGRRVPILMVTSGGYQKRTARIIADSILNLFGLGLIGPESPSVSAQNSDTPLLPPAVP

Daudi = assay: Cytotoxicity against human Daudi cells assessed as inhibition of cell growth measured after 72 hrs by CellTiter-Glo luminescent viability assay; assay type: functional, cell-based
NCI-H2122 = assay: Cytotoxicity against human NCI-H2122 cells assessed as inhibition of cell growth measured after 72 hrs by CellTiter-Glo luminescent viability assay; assay type: functional, cell-based; conditions: NCI-H2122, 72 h
HCT-116 [5] = assay: Cytotoxicity against human HCT-116 cells assessed as inhibition of cell growth measured after 72 hrs by CellTiter-Glo luminescent viability assay; assay type: functional, cell-based; conditions: HCT-116, 72 h
TMD8 = assay: Cytotoxicity against human TMD8 cells assessed as inhibition of cell growth measured after 72 hrs by CellTiter-Glo luminescent viability assay; assay type: functional, cell-based; conditions: TMD8, 72 h
Ramos = assay: Cytotoxicity against human Ramos cells assessed as inhibition of cell growth measured after 72 hrs by CellTiter-Glo luminescent viability assay; assay type: functional, cell-based
K562 [6] = assay: Cytotoxicity against human K562 cells assessed as inhibition of cell growth measured after 72 hrs by CellTiter-Glo luminescent viability assay; assay type: functional, cell-based; conditions: K562, 72 h
THP-1 = assay: Cytotoxicity against human THP-1 cells assessed as inhibition of cell growth measured after 72 hrs by CellTiter-Glo luminescent viability assay; assay type: functional, cell-based; conditions: THP-1, 72 h
U-937 = assay: Cytotoxicity against human U-937 cells assessed as inhibition of cell growth measured after 72 hrs by CellTiter-Glo luminescent viability assay; assay type: functional, cell-based; conditions: U-937, 72 h
Calu-6 = assay: Cytotoxicity against human Calu-6 cells assessed as inhibition of cell growth measured after 72 hrs by CellTiter-Glo luminescent viability assay; assay type: functional, cell-based; conditions: Calu-6, 72 h
NCI-H460 = assay: Cytotoxicity against human NCI-H460 cells assessed as inhibition of cell growth measured after 72 hrs by CellTiter-Glo luminescent viability assay; assay type: functional, cell-based; conditions: NCI-H460, 72 h
PC-9 = assay: Cytotoxicity against human PC-9 cells assessed as inhibition of cell growth measured after 72 hrs by CellTiter-Glo luminescent viability assay; assay type: functional, cell-based; conditions: PC-9, 72 h
NCI-H1975 = assay: Cytotoxicity against human NCI-H1975 cells assessed as inhibition of cell growth measured after 72 hrs by CellTiter-Glo luminescent viability assay; assay type: functional, cell-based; conditions: NCI-H1975, 72 h
NCI-H358 = assay: Cytotoxicity against human NCI-H358 cells assessed as inhibition of cell growth measured after 72 hrs by CellTiter-Glo luminescent viability assay; assay type: functional, cell-based; conditions: NCI-H358, 72 h
COLO 205 = assay: Cytotoxicity against human COLO 205 cells assessed as inhibition of cell growth measured after 72 hrs by CellTiter-Glo luminescent viability assay; assay type: functional, cell-based; conditions: COLO 205, 72 h
SW-620 = assay: Cytotoxicity against human SW620 cells assessed as inhibition of cell growth measured after 72 hrs by CellTiter-Glo luminescent viability assay; assay type: functional, cell-based; conditions: SW-620, 72 h
LoVo = assay: Cytotoxicity against human LoVo cells assessed as inhibition of cell growth measured after 72 hrs by CellTiter-Glo luminescent viability assay; assay type: functional, cell-based
SW480 = assay: Cytotoxicity against human SW480 cells assessed as inhibition of cell growth measured after 72 hrs by CellTiter-Glo luminescent viability assay; assay type: functional, cell-based; conditions: SW480, 72 h
MC-38 = assay: Cytotoxicity against mouse MC38 cells assessed as inhibition of cell growth measured after 72 hrs by CellTiter-Glo luminescent viability assay; assay type: functional, cell-based; conditions: MC-38, 72 h
[7] = Cmax in tumor of female SCID mouse xenografted with human Daudi cells at 25 to 100 mg/kg, iv measured upto 24 hrs by LC-MS/MS analysis; assay type: ADME, organism-based, Neoplasm; conditions: dose 25-100 mg/kg
[8] = AUC in tumor of female SCID mouse xenografted with human Daudi cells at 25 to 100 mg/kg, iv measured upto 24 hrs by LC-MS/MS analysis; assay type: ADME, organism-based, Neoplasm; conditions: in vivo, dose 25-100 mg/kg
[9] = Half life in tumor of female SCID mouse xenografted with human Daudi cells at 25 to 100 mg/kg, iv measured upto 24 hrs by LC-MS/MS analysis; assay type: ADME, organism-based, Neoplasm; conditions: dose 25-100 mg/kg

Sequence of Histone deacetylase 2 (Q92769 whole entry): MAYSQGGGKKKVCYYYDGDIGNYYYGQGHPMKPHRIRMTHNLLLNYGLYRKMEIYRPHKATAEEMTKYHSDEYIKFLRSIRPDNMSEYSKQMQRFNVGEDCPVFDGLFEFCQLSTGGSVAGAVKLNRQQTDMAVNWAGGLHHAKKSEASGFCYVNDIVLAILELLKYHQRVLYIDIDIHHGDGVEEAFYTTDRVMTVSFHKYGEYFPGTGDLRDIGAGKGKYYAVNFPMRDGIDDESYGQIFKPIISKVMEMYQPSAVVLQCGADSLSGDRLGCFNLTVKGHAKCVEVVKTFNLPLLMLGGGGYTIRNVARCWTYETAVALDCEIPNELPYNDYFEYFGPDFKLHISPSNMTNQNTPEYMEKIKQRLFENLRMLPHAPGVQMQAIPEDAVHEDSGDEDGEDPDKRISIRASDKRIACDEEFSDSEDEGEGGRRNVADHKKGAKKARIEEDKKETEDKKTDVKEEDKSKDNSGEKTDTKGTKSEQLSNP

COc1ncc(-c2cc(OCCCCCCC(=O)NO)c3ncnc(C)c3c2)cc1F showed an IC50 (Histone deacetylase 2) of 1.4 nM, an IC50 (Histone deacetylase 8) of 1.4 nM and an IC50 (K562 [1]) of 23 nM. The “inhibition (INH)” value (HCT-116 [2]) was 45.8%, the “inhibition (INH)” value (HGC-27) was 62.6% and the inhibition in vivo at 15 mg/kg (EL4) was 78.1%. For the same compound, the inhibition in vivo at 15 mg/kg (A20) was 60%.

For CNc1ccc(-c2nc(N3CCOCC3)c3sc(CN(C)c4ncc(C(=O)NO)cn4)cc3n2)cn1, the IC50 (Histone deacetylase 1) was 0.9 nM, the IC50 (Histone deacetylase 2) was 0.9 nM and the IC50 [3] was 9.3 nM. It also gave an IC50 (Histone deacetylase 3) of 0.9 nM, an IC50 [4] of 0.9 nM and an IC50 (Histone deacetylase 11) of 0.9 nM. For the same compound, the IC50 (Daudi) was 0.3 nM, the IC50 (NCI-H2122) was 0.3 nM and the IC50 (HCT-116 [5]) was 0.3 nM. For the same compound, the IC50 (TMD8) was 0.3 nM, the IC50 (Ramos) was 0.3 nM and the IC50 (K562 [6]) was 0.3 nM. The IC50 (THP-1) was 0.3 nM, the IC50 (U-937) was 0.3 nM and the IC50 (Calu-6) was 0.3 nM. For the same compound, the IC50 (NCI-H460) was 0.3 nM, the IC50 (PC-9) was 0.3 nM and the IC50 (NCI-H1975) was 0.3 nM. The IC50 (NCI-H358) was 0.3 nM, the IC50 (COLO 205) was 0.3 nM and the IC50 (SW-620) was 0.3 nM. The IC50 (LoVo) was 0.3 nM, the IC50 (SW480) was 0.3 nM and the IC50 (MC-38) was 0.3 nM. The Cmax [7] was 14500 ng/g, the AUC [8] was 17157.9 ng·h/g and the half-life [9] was 474 min.
